# From US8252835B2, “Compounds and methods for treating estrogen receptor-related diseases” (Shenogen Pharma Group Ltd., priority 2006, dated 2012)
# Key:
# H226 Lung Cancer Cells = assay: H226 lung cancer surviving cell count; assay type: cell-based; conditions: two weeks, FIG. 10
# [1] = tested on: human breast cancer BCAP-37 cells xenografts; assay: Human breast cancer BCAP-37 xenografts in nude mice; assay type: in vivo, BALB/c-nu mice; conditions: 15 days, FIG. 14a
# Text: The original nude mice bearing BCAP-37 breast cancer were provided by the Institute of Materia Medica, Chinese Academy of Medical Sciences. Tumor tissues were taken from the mice and cut into small pieces. Several pieces of the tumor tissues were implanted into the armpit under the right front limb of female nude mice (provided by the Division of Experimental Animals of the Medical School of Beijing University). […] Starting on the seventh day, the mice were fed with Icaritin at three dosages. The high dosage was 0.7 mg per mouse per day (about 33 mg/kg/day). The medium dosage was 0.35 mg per mouse per day (about 16.5 mg/kg/day). The low dosage was 0.18 mg per mouse per day (about 8.25 mg/kg/day). […] Olive oil was used as a negative control wherein each mouse was fed with 0.1 ml of olive oil. […] Then the mice were sacrificed and the tumor tissues were dissected from the mice and weighed. Two parallel experiments were done for the tests. Ten female BALB/c-nu mice were used for each test compounds and each dosages for one of the two parallel experiment. Eight female BALB/c-nu mice were used for each test compounds and each dosages for the other parallel experiment. […] The effect of IC 163 on inhibiting breast cancer growth was tested in the same assay as described above. IC 163 was tested at the dosage of 0.7 mg per mouse per day (about 35 mg/kg/day). […] Olive oil was used as a negative control.
# [2] = tested on: cervical cancer U14 cells; assay: Murine cervical cancer U14 tumors in ICR mice; assay type: in vivo; conditions: 14 days, FIG. 15a
# Method: The original ICR mice containing cervical cancer U14 cell line were provided by the Institute of Materia Medica, Chinese Academy of Medical Sciences. Five ml of abdominal fluid was drawn from the lower abdomen of the mice. The fluid was diluted at the ratio of 1:5 with saline. 0.2 ml of the diluted abdominal fluid was injected subcutaneously at the right front limb and chest of female ICR mice (provided by the Division of Experimental Animals of the Medical School of Beijing University). After the implantation, the mice were treated right away with Icaritin, Tamoxifen and olive oil, respectively. Icaritin was given at three dosages. The high dosage was 0.7 mg per mouse per day (about 33 mg/kg/day). The medium dosage was 0.35 mg per mouse per day (about 16.5 mg/kg/day). The low dosage was 0.18 mg per mouse per day (about 8.25 mg/kg/day). […] Olive oil was used as a negative control wherein each mouse was fed with 0.1 ml of olive oil. […] Then the mice were sacrificed and the tumor tissues were dissected from the mice and weighed. Ten female ICR mice were used for each test compounds and dosages. Three parallel experiments were carried out. […] The tumor growth inhibition rate was calculated using the same formula as Example 11.
# breast cancer cells = conditions: background, literature (Liu 2005; Wang 2004; Ye 2005); cited from earlier work
# MCF7 cells [3] = assay: MCF7 surviving cell count (hemocytometer); conditions: two weeks
# LnCap cells = assay: LNCap prostate cancer surviving cell count; assay type: cell-based; conditions: two weeks, FIG. 10
# [4] = tested on: human endometrial cancer Hec1A cells; assay: MTT assay of Hec1A cell growth; assay type: cell-based; conditions: 24 hours
# Method: Human endometrial cancer Hec1A cells (ATCC No.: HTB-112™) were subseeded in a 96-well culture plate at a concentration of 5×10^3 cells/well and were cultured in DMEM containing high glucose medium (HyClone, SH30022.01B). […] The cells then were incubated with 0.5 mg/ml 3-(4,5-dimethylthiazol-2-yl)-2,5-diphenyltetrazolium bromide (MTT) for 4 hours at 37° C. wherein the MTT was reduced to insoluble purple formazan by the active mitochondrial reductase enzymes in the living cells. Then the excessive liquid MTT was removed from the reaction mixture. 150 μl of DMSO was added to dissolve the purple formazan into a colored solution. The optical density of the colored solution was measured at 490 nm using a microplate reader.
# MDA-MB-231 cells [5] = assay: MDA-MB-231 colony formation, crystal violet staining; assay type: cell-based; conditions: 10 days, FIG. 4
# PC3 cells = assay: PC3 prostate cancer surviving cell count; assay type: cell-based; conditions: two weeks, FIG. 10
# MCF7 cells [6] = assay: MCF7 colony formation; assay type: cell-based; conditions: zero to 25 μM, as concentration rose, 10 days, FIG. 5a
# [7] = tested on: Tamoxifen resistant MCF7 cells (MCF7/TAM); assay: Surviving cell count, Tamoxifen resistant MCF7 cells; conditions: two weeks, FIG. 6
# [8] = tested on: MDA-MB-231 cell xenografts; assay: MDA-MB-231 xenografts in nude mice, established tumors; assay type: in vivo; conditions: 5 mg per mouse by gavage every other day for 30 days, FIG. 11
# Method: (§1) The vial was wrapped with aluminium foil and placed on a rocker at 37° C. for several hours. […] The Icaritin solution was administered to mice using the gavage technique. For gavaging, we used Animal Feeding Needles (Popper; cat No. 9921, size: 20GX1.1/2).
# (§2) Tumor formation was assayed in female athymic nude mice (6 weeks old, strain CDI nu/nu, Charles River Breeding Laboratory). MCF7 cells or MDA-MB-231 cells at the concentration of 1×10^7 cells in 200 μl Matrigel (BD Biosciences) were injected into the mice by the mammary fatpad injection. A group of 5 mice were injected with each type of breast cancer cells. […] Tumor disappearance was determined by palpation, and the sizes of tumors were also monitored by measuring two perpendicular diameters with vernier calipers every other day and photographed.
# [9] = tested on: MCF7 cells over-expressing ER-α36 (MCF7/ER36); assay: Surviving cell count, MCF7 cells over-expressing ER-α36; assay type: cell-based; conditions: two weeks, FIG. 6
# Text: MCF7 cells over-expressing ER-α36 were made by stably transfecting MCF cells with an ER-α36 expression vector. The ER-α36 expression vector was constructed by cloning a 1.1-kb cDNA fragment of ER-α36 from pBluescript plasmid into a mammalian expression vector pCB6+ as described before (Wang et al., 2005, BBRC, 336:1023-1027). The constructed ER-α36 expression vector contains the cytomegalovirus (CMV) early promoter. MCF7 cells were transfected with the ER-α36 expression vector using the FuGene6 transfection reagent (Roche Molecular Biochemicals). Forty-eight hours after transfection, the cells were re-plated and selected with 500 μg/ml of G418 (Invitrogen) for about two weeks until colonies appeared. The clones were then pooled and cultured to confirm the expression of ER-α36 by Western blot analysis.
# [10] = tested on: MDA-MB-231 cell xenografts; assay: MDA-MB-231 xenografts in nude mice, treatment right after implantation; assay type: in vivo; conditions: 1 mg per mouse twice a week for 36 days, started right after injection, FIG. 13
# Method: Tumor formation was assayed in female athymic nude mice (6 weeks old, strain CDI nu/nu, Charles River Breeding Laboratory). MDA-MB-231 cells at the concentration of 1×10^7 cells in 200 μl Matrigel (BD Biosciences) were injected into the mice by the mammary fatpad injection. A group of 5 mice were injected with the breast cancer cells. The mice were treated with Icaritin right after the injection. […] Then the mice were sacrificed and the tumor tissues were dissected from the mice, photographed and weighed.
# MDA-MB-231 cells [11] = assay: MDA-MB-231 cells treated for a week, examined under microscope; assay type: cell-based; conditions: 10 μM, one week, FIG. 3
# MCF7 cell xenografts = assay: MCF7 xenografts in nude mice, established tumors; assay type: in vivo; conditions: 5 mg per mouse by gavage every other day for 15 days, FIG. 12
# Method: as §1, §2
# [12] = high dosage 0.7 mg per mouse per day
# [13] = low dosage 0.18 mg per mouse per day
# [14] = medium dosage 0.35 mg per mouse per day
smiles,measurement,setting,value
COc1ccc(-c2oc3c(CC=C(C)C)c(O)cc(O)c3c(=O)c2O)cc1 [Icaritin],numbers of cells,H226 Lung Cancer Cells; 5 μM,decreased
same,numbers of cells,H226 Lung Cancer Cells; 10 μM,further reduced
same,tumor weight compared with negative controls,[1]; [12],reduced tumor weights
same,tumor weight compared with negative controls,[1]; [13],reduced tumor weights
same,tumor weight compared with negative controls,[1]; [14],reduced tumor weights
same,tumor weight compared with negative control,[2]; [12],reduced tumor weights
same,tumor weight compared with negative control,[2]; [13],reduced tumor weights
same,tumor weight compared with negative control,[2]; [14],reduced tumor weights
same,proliferation of breast cancer cells,breast cancer cells,significantly increase
same,numbers of surviving MCF7 cells,"MCF7 cells [3]; 5 μM and up, FIG. 5b",significantly reduced
same,growth of cells (numbers of survived cells),"MCF7 cells [3]; 5 μM, FIG. 6",significantly inhibited
same,numbers of cells,"MCF7 cells [3]; 10 μM, FIG. 6",near zero
same,numbers of cells,LnCap cells; 5 μM,decreased
same,numbers of cells,LnCap cells; 10 μM,further reduced
same,effect on the growth of Hec1A cells,[4]; 0 to 5 μM,significant inhibitory effect
same,optical density at 490 nm (MTT),"[4]; increased concentrations 0 to 5 μM, FIG. 21",declined smoothly
same,numbers of colonies of MDA-MB-231 cells,MDA-MB-231 cells [5]; 5 μM,decreased
same,numbers of colonies of MDA-MB-231 cells,MDA-MB-231 cells [5]; 10 μM,reduced to near zero
same,numbers of cells,PC3 cells; 5 μM,decreased
same,numbers of cells,PC3 cells; 10 μM,further reduced
same,number of colonies of MCF7 cells,MCF7 cells [6],significantly reduced
same,growth of cells (numbers of survived cells),[7]; 5 μM,significantly inhibited
same,inhibition compared with MCF7 cells,[7]; 5 μM,stronger
same,numbers of cells,[7]; 10 μM,near zero
same,tumor size,[8],significant tumor size reduction
same,growth of cells (numbers of survived cells),[9]; 5 μM,significantly inhibited
same,inhibition compared with MCF7 cells,[9]; 5 μM,stronger
same,numbers of cells,[9]; 10 μM,near zero
same,tumor size,[10],tumor size reduction
same,cell morphology,MDA-MB-231 cells [11],features characteristic of apoptotic cells
same,number of surviving cells,MDA-MB-231 cells [11],dramatically reduced
same,tumor size,MCF7 cell xenografts,significant tumor size reduction
